“Also recorded” adds a separate entry of the source.
Tests used:
TNF-α [1] = assay: LPS-induced endotoxin shock model, plasma TNF-alpha by ELISA; type: in vivo; details: male C57BL/6 mice, 25, 50, 100 mg/Kg injected peritoneally 1 hour before LPS 2.5 mg/Kg; blood 1.5 hours after LPS
From the text: The horizontal axis indicates the compound numbers corresponding to the examples or the amount of Compound 1 used in mg/Kg of mouse body weight. The vertical axis indicates the concentrations of TNF-α.
Materials: C57BL/6 mice (6-8 week old) are purchased from Shanghai Laboratory Animal Center (SLAC). Animals are kept, with sufficient water and standard diets, in the Laboratory Animal Center (clean room) in the Institute of Biochemistry and Cell Biology at the Shanghai Institute for Biological Sciences, Chinese Academy of Sciences.
Lipopolysaccharides (LPS) was purchased from Sigma (St. Louis, Mo.) was dissolved in sterile physiological saline and aliquots are stored at −70° C. (The LPS used in the cell testing has a catalog No. L4391, and used in animal testing has a catalog No. L3129.)
Cytokine (TNF-alpha) ELISA test kit (Catalog No. MTA00) was purchased from R&D Co.
Steps: (1) 6-8 week old male C57BL/6 mice are randomly grouped in 5 mice per group for use in endotoxin model tests;
(2) weigh each mouse, and inject peritoneally 200 μL different concentrations of small molecule Compound 1 in physiological saline (the injection doses for the low, medium, and high groups are respectively 25 mg/Kg, 50 mg/Kg, and 100 mg/Kg body weight). The control group was injected with 200 μL physiological saline; […]

TNF-α [2] = assay: In vitro inhibition of TNF-α (LPS-stimulated J774 macrophages, ELISA of supernatant); type: cell-based; details: mice macrophage cell line J774, 1 μg/mL LPS, compound 10 μM, 5 hours
Method: The horizontal axis indicates the compound numbers corresponding to the examples, and the vertical axis indicates the inhibition rate (IR) of TNF-α. The concentration used in the assays is 10 μM.
In vitro inhibition of TNF-α: inoculate 48 well plates with mice macrophase cell line J774, at 1×10^5 cells/well. Incubate in DMEM containing 10% FBS under 6% CO2 for 12 hours. Use DMEM medium containing 1 μg/mL LPS to dilute the small molecule compounds to a final concentration of 10^−5 mol/L and use that to replace the original culture medium. The incubation is continued for another 5 hours. Collect the supernatants and determine TNF-α using ELISA. In this experiment, compound SB 202190 (4-(4-fluorophenyl)-2-(4-hydroxyphenyl)-5-(4-pyridyl)-1H-imidazole, CAS 152121-30-7, was purchased from Sigma. This compound is a specific inhibitor of p38 MAPK. Through inhibition of p38 phosphorylation, it inhibits the production of TNF-α) is used as a positive control.

Row | Structure (SMILES) | effect on pro-inflammatory cytokine TNF-α level in plasma (FIG. 3) (TNF-α [1]) | inhibition rate (IR) of TNF-α / anti-inflammatory activity (FIG. 1) (TNF-α [2]) | melting point | inhibition rate (IR) of TNF-α / anti-inflammatory activity (FIG. 1) (TNF-α [2]; 10 µM)
1 | COC1=C[C@@H]2[C@@H]3[C@H](Sc4ccc(C)cc4)c4ccc(O)c(O)c4[C@]2(CCN3C)CC1=O [Compound 1] | substantial inhibitory effect; also recorded: dose dependent | apparent activities | 224 to 225 °C (dec.) | –
2 | COC1=CC2[C@@H]3[C@H](Sc4ccccc4)c4ccc(O)c(O)c4[C@]2(CCN3C)CC1=O (stereo partly drawn) [Compound 4] | – | apparent activities | 210 to 212 °C (dec.) | –
3 | COC1=CC2[C@@H]3[C@H](Sc4ccc(C(C)(C)C)cc4)c4ccc(O)c(O)c4[C@]2(CCN3C)CC1=O (stereo partly drawn) [Compound 8] | – | apparent activities | 232 to 233 °C (dec.) | –
4 | COC1=CC2[C@@H]3[C@H](OC(C)=O)c4ccc(OC(C)=O)c(OC(C)=O)c4[C@]2(CCN3C)CC1=O (stereo partly drawn) [Compound 31] | – | apparent activities | 198 to 199 °C | –
5 | COC1=CC2[C@@H]3[C@H](OC)c4ccc(OC)c(O)c4[C@]2(CCN3C)CC1=O (stereo partly drawn) [Compound 33, 10β-methoxysinomenine] | – | – | 201 to 203 °C (dec.) | TNF-α stimulating effects; also recorded: TNF-α stimulatory activities
6 | COC1=CC2[C@@H]3[C@H](OC(C)=O)c4c(CO)cc(OC)c(O)c4[C@]2(CCN3C)CC1=O (stereo partly drawn) [Compound 34, 1-hydroxymethyl-10β-acetoxysinomenine] | – | – | – | TNF-α stimulating effects; also recorded: TNF-α stimulatory activities
7 | COC1=CC2[C@@H]3[C@H](OC)c4c(CO)cc(OC)c(O)c4[C@]2(CCN3C)CC1=O (stereo partly drawn) [Compound 35, 1-hydroxymethyl-10β-methoxysinomenine] | – | – | – | TNF-α stimulating effects; also recorded: TNF-α stimulatory activities
8 | COC1=CC2[C@@H]3C(=O)c4ccc(OC)c(OC(C)=O)c4[C@]2(CCN3C)C[C@@H]1O (stereo partly drawn) [Compound 39] | – | apparent activities | – | –
9 | COC1=CC2[C@@H]3C(=O)c4ccc(OC)c(OC(C)=O)c4[C@]2(CCN3C)C[C@H]1O (stereo partly drawn) [Compound 40] | – | apparent activities | – | –
